The source of these data is patent US20030022920A1, “1-Methyl-4- (3-ethoxy-9H-thioxanthene-9-ylidene) -piperidine and its use as 5-HT2B/H1 receptor antagonist” (priority 2001, published 2003).

Assay [1] deals with T1, human 5-HT2B receptor (Homo sapiens, UniProt P41595). Nature of the assay: Cloned human 5-HT2B receptor binding assay ([3H]-5HT, transfected HEK 293 cell membranes). On the set-up: expressed in transfected cells; host or cells: HEK 293 (transient transfection; membranes). The following applies: [3H]5-HT 4 to 5 nM, 37° C. 30 min, result in words only. The method, then: Cloned Human 5-HT2B Receptor Binding Assay
T1 sequence (P41595 whole entry): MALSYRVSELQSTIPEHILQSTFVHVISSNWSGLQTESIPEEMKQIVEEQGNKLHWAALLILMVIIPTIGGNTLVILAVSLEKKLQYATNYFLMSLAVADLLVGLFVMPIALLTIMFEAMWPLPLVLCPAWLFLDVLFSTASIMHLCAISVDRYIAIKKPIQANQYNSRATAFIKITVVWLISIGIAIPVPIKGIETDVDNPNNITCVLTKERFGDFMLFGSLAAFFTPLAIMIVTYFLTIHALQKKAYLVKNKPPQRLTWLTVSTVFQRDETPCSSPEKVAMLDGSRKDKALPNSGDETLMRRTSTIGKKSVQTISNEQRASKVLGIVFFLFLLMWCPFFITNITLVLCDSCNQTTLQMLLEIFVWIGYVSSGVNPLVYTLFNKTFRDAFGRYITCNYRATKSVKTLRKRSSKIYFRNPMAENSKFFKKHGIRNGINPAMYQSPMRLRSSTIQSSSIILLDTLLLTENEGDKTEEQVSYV
The following describes an in vitro binding assay utilizing cloned 5-HT2B receptors radiolabelled with [^3H]-5HT.
HEK 293 cells transiently transfected with an expression plasmid pXMD1-hu2B encoding the human 5-HT2B receptor (see Schmuck et al., FEBS Lett., 1994, 342, 85-90) were used as described previously (Schmuck et al., Eur. J. Pharmacol., 1996, 8, 959-967). Two days after transfection cells were harvested, pelleted at 500 g for 5 min at 4° C., gently resuspended in ice-cold buffer1 (50 mM TRIS pH 7.7, 4 mM CaCl2) and homogenized using a Polytron PT 1200 tissue homogenizer (position 6 for 30 s). Cells were pelleted at 50,000 g, 4° C. for 10 min, washed with buffer1 and pelleted again. The final pellet was resuspended in incubation buffer (50 mM TRIS pH 7.7, 4 mM CaCl2, 10 μM pargyline and 0.1% by weight ascorbic acid). The binding assay consisted of 300 μl of membrane suspension (protein concentration =0.3 to 0.5 mg/ml), 150 μl of competing drug and 50 μl of [^3H]5-HT at a final concentration of 4 to 5 nM. […] Filters were counted by liquid scintillation. Non-specific binding was determined in the presence of an excess of 5-HT ([…]). […] Results are expressed as pK1 values. […]

Assay [2] concerns the target T1, human 5-HT2B receptor. Nature of the assay: 5-HT2A/5-HT2B/5-HT2C receptor binding methods (counter screen for selectivity). On the set-up: expressed in transfected cells; host or cells: HEK293. Particulars: human 5-HT2B in HEK293, [3H]-5HT approx. 0.4 nM, 120 min at 4° C.; result in words only. Here is the method: 5-HT2A 5-HT2B 5-HT2C Receptor Binding Methods
5-HT2A receptors were labelled with [^3H]ketanserin in human cortex, in HEK293 cells expressing a cloned human 5-HT2A receptor and in HEK293 cells expressing the rat 5-HT2A receptor. For competition binding studies the ligand concentration was approximately 0.1 nM. For saturation binding studies concentrations of radioligand ranged from 0.01 nM to 2.0 nM. Assays were conducted in 0.5 ml of assay buffer (50 mM Tris-HCl, 4 mM calcium chloride, 0.1% by weight ascorbic acid) (pH 7.4 at 4° C.). Non-specifc binding was defined with […] unlabelled ketanserin. After a 60 min incubation at 32° C., membranes were harvested onto filters treated with 0.1% by weight of polyethylenimine and the bound radioactivity was determined.
Human 5-HT2B receptors were labelled in HEK293 cells as described above. except that the radioligand was [^3H]-5HT and that the assay buffer contained pargyline in a concentration of 10 mM and 0.1% by weight of ascorbic acid. […]
Competition radioligand binding data was analyzed using a four parameter logistic equation and iterative curve-fitting techniques to obtain estimates of the IC50 and Hill slope. Kd values, determined from saturation binding studies were then used to calculate inhibition dissociation constants (Ki).

For assay [3], the target named is T2, 5-HT receptors (the putative 5-HT2B) in rat stomach fundus longitudinal muscle (Rattus norvegicus, UniProt P30994).
T2 construct: Strips of longitudinal muscle were obtained from the stomach fundus of male Sprague Dawley rats; from tissue; host or cells: rat stomach fundus longitudinal muscle strips
T2 sequence (P30994 whole entry): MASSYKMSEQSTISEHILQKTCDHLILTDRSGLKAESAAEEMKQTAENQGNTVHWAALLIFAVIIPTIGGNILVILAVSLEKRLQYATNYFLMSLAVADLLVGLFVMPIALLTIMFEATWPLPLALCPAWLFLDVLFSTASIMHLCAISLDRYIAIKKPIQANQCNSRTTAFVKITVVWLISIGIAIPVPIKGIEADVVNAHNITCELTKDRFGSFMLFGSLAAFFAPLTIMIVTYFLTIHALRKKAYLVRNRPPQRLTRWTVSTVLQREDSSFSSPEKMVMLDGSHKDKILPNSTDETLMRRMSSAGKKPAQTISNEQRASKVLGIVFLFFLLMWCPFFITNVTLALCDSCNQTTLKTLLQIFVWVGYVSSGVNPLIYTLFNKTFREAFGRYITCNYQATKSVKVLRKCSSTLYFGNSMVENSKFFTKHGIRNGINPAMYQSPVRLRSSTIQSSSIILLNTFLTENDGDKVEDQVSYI
Description: 5-HT2B receptor tissue based functional assay in rat stomach fundus longitudinal muscle. The class given is biochemical. The following applies: dextral shift of 5-HT agonist concentration-response curve, rat stomach fundus strips; result in words only. The method, then: 5-HT2B Receptor Tissue Based Functional Assay
The following describes an in vitro functional assay characterizing 5-HT receptors (the putative 5-HT2B) in rat stomach fundus longitudinal muscle (Baxter et al., Brit. J. Pharmacol. 1994, 112, 323-331).
Strips of longitudinal muscle were obtained from the stomach fundus of male Sprague Dawley rats. The mucosa was removed and the strips were suspended with a resting tension of 1 g in oxygenated (95% O2/5% CO2) Tyrode solution at 37° C. The composition of the Tyrode solution was as follows (mM): NaCl 136.9; KCl 2.7; NaH2PO4 0.4; MgCl2 1.0; glucose 5.6; NaHCO3 11.9; CaCl2 1.8. […]
Effects of drugs were monitored by tension transducers and recorded on polygraph recorders. Tissue response was measured as changes in isometric tension (g). The mean potency (EC50) and maximum response were evaluated by standard iterative curve fitting procedures.
Effects of antagonists were determined by measuring dextral shifts to the agonist concentration-response curve after equilibration of the antagonists for at least 1 h. Concentration ratios were measured at half maximal response levels and single concentration antagonist affinities were determined by the equation: [formula]

For assay [4], the target named is T3, human Histamine H1 receptor (Homo sapiens, UniProt P35367).
T3 construct: expressed in transfected cells; host or cells: COS-7 (transient transfection; cell homogenates)
T3 sequence (P35367 whole entry): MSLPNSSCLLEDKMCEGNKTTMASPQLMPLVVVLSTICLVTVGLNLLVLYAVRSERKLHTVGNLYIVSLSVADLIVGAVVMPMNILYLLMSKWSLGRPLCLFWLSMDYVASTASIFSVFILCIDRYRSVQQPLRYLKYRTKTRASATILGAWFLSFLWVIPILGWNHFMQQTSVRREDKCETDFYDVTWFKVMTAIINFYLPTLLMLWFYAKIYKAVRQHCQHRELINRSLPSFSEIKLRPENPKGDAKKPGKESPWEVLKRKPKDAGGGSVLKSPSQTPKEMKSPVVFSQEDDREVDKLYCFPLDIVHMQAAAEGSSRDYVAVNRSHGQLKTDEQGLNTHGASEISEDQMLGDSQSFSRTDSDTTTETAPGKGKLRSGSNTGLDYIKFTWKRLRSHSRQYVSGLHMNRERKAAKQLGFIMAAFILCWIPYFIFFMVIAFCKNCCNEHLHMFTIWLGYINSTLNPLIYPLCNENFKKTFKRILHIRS
Description: Cloned human H1, H2 and H3 receptor binding assay ([3H]-mepyramine, transfected COS-7 cell homogenates). The following applies: displacement of 1 nM [3H]-mepyramine, COS-7 homogenates; result in words only. The method, then:
Cloned Human H1, H2, and H3 Receptor Binding Assay
COS-7 cells were transiently transfected with an expression plasmid pCineohH1, pCineohH2, pCineohH3 and pCineohH4 encoding the human Histamine H1, H2, H3 or H4 receptor, respectively. Transfected cells were harvested after 48 h, homogenized in ice-cold 50 mM Na2/potassium phosphate buffer (pH 7.4) and used for radioligand binding studies. Cell homogenates (40-50 μg of protein) were incubated for 30 min at 25° C. in 50 mM Na2/potassium phosphate buffer (pH 7.4) in 400 μl with the various concentrations of either [^3H]-mepyramine, [^3H]-thiotidine, [^3H]-R-α-Methylhistamine, and [^3H]-pyramilamine for cells expressing recombinant human H1, H2, H3 and H4 receptors, respectively. The nonspecific binding was defined in the presence of 1 μM mianserin. In displacement studies, cell homogenated were incubated either with 1 nM [^3H]-mepyramine, 15 nM [^3H]-thiotidine, 0.5 nM [^3H]-R-α-Methylhistamine, or 15 nM [^3H]-pyramilamine and increasing concentrations of competing ligands. […] The bound radioactivity was seperated by filatration through Whatman GF/C filters that had been treated with 0.3% polyethyleneimine. Filters were washed twice in 3 ml of buffer and radioactivity retained on the filters was measured by liquid scinitllation counting. […]

The target in assay [5] is T4, human H1 receptor (Homo sapiens, UniProt P35367).
T4 construct: expressed in transfected cells; host or cells: HEK-293 (transient transfection; whole cells)
T4 sequence (P35367 whole entry): as above
Nature of the assay: Human histamine H1 receptor functional assay ([3H]-inositol phosphate formation in transfected HEK-293 cells). The assay is classed as cell-based. Particulars: histamine-stimulated [3H]-inositol phosphate formation, result in words only. The method, then: Human Histamine H1 Receptor Functional Assay
For the measurement of the [^3H]-inositol phosphate formation transiently transfected HEK-293 cells were seeded in 24 well plates and labeled to equilibrium with myo-[2-^3H]-inositol (3 iCi/ml) for an additional 24 hours in growth medium. The medium was aspirated and cells were washed once with 500 μl HBS-buffer (130 mM NaCl, 900 μM NaH2PO4, 800 μM MgSO4, 5.4 mM KCl, 1.8 mM CaCl2, 25 mM Glucose in 20 mM HEPES pH 7.4). Two min after applying 20 mM Li^+ the cells were stimulated by addition of histamine in HBS-buffer. The incubation was stopped by aspiration off the culture medium and the addition of cold 10 mM formic acid. [^3H]inositol phosphates were isolated by anion exchange chromatography (see Seuwen et al., 1988, EMBO J., 7, 161-168). The pKB value was calculated according to the formula: pKB=log (A′/A−1)−log [B], where A′/A is the ratio of the agonist concentrations (EC50 in the presence/EC50 in the absence of antagonist) and [B] the concentration of antagonist.

For `CCOc1ccc2c(c1)Sc1ccccc1C2=C1CCN(C)CC1` [1-methyl-4-(3-ethoxy-9H-thioxanthene-9-ylidene)-piperidine], the “affinity for the 5-HT2B receptor” value in assay [1] and in assay [2] was “found to have affinity for the 5-HT2B receptor” throughout. Besides, in assay [3], the “antagonism at the 5-HT2B receptor” value is “found to be an antagonist at the 5-HT2B receptor”. For the same compound, the “affinity for the human H1 receptor” value in assay [4] was “found to have affinity for the human H1 receptor”. For the same compound, the “antagonism at the human H1 receptor” value in assay [5] is “found to be an antagonist at the human H1 receptor”.
